Measured values as given in patent US9394446B2, “Method for recovering Ru complex dye from used dye solution” (Tanaka Kikinzoku Kogyo K.K., priority 2012, dated 2016).

Legend:
[1] = Preliminary test: dissolving property of dye solution components in ether-based solvents, alkane-based solvents and water; details: for dissolving property in Dibutyl ether: 1 mg (solvents: 1 mL) in 1 mL dibutyl ether; for dissolving property in Dibutyl ether / dissolving property in Diethyl ether / dissolving property in Diisopropyl ether / dissolving property in Heptane / dissolving property in Hexane / dissolving property in Isoamyl ether / dissolving property in Methyl propyl ether / dissolving property in Octane / dissolving property in Pentane / dissolving property in t-Butyl methyl ether / dissolving property in Water: 25° C.; for dissolving property in Diethyl ether: 1 mg (solvents: 1 mL) in 1 mL diethyl ether; for dissolving property in Diisopropyl ether: 1 mg (solvents: 1 mL) in 1 mL diisopropyl ether; for dissolving property in Heptane: 1 mg (solvents: 1 mL) in 1 mL heptane; for dissolving property in Hexane: 1 mg (solvents: 1 mL) in 1 mL hexane; for dissolving property in Isoamyl ether: 1 mg (solvents: 1 mL) in 1 mL isoamyl ether; for dissolving property in Methyl propyl ether: 1 mg (solvents: 1 mL) in 1 mL methyl propyl ether; for dissolving property in Octane: 1 mg (solvents: 1 mL) in 1 mL octane; for dissolving property in Pentane: 1 mg (solvents: 1 mL) in 1 mL pentane; for dissolving property in t-Butyl methyl ether: 1 mg (solvents: 1 mL) in 1 mL t-butyl methyl ether; for dissolving property in Water: 1 mg (solvents: 1 mL) in 1 mL water, for comparison
[2] = Mixing/dissolving behaviour of DMSO in ethers (inventors' observation); format: physicochemical

mixing or dissolving in ethers (diethyl ether), in words [2]	dissolving property of isoamyl ether, in words ([1]; isoamyl ether (C5H11—O—C5H11))	dissolving property of octane, in words ([1]; octane with a carbon number of 8)	SMILES	dissolving property in Dibutyl ether [1]	dissolving property in Diethyl ether [1]	dissolving property in Diisopropyl ether [1]	dissolving property in Heptane [1]	dissolving property in Hexane [1]	dissolving property in Isoamyl ether [1]	dissolving property in Methyl propyl ether [1]	dissolving property in Octane [1]	dissolving property in Pentane [1]	dissolving property in t-Butyl methyl ether [1]	dissolving property in Water [1]
–	–	–	CCCCOc1ccc(-c2ccc(N(c3ccc(-c4ccc(C=C(C#N)C(=O)O)s4)cc3)c3ccc(-c4ccc(OCCCC)cc4OCCCC)cc3)cc2)c(OCCCC)c1 [D35]	◯ (those having solubility of 0.05 g/L or more but less than 5 g/L and those miscible with a solvent for dye solution were labeled as “∘” with good dissolving property)	⊙ (those dissolved at 5 g/L or more and those fully miscible with a solvent for dye solution were labeled as “⊙” with excellent dissolving property)	⊙ (those dissolved at 5 g/L or more and those fully miscible with a solvent for dye solution were labeled as “⊙” with excellent dissolving property)	Δ (those having the solubility of less than 0.05 g/L were labeled as “Δ” with fair dissolving property)	Δ (those having the solubility of less than 0.05 g/L were labeled as “Δ” with fair dissolving property)	Δ (those having the solubility of less than 0.05 g/L were labeled as “Δ” with fair dissolving property)	⊙ (those dissolved at 5 g/L or more and those fully miscible with a solvent for dye solution were labeled as “⊙” with excellent dissolving property)	Δ (those having the solubility of less than 0.05 g/L were labeled as “Δ” with fair dissolving property)	Δ (those having the solubility of less than 0.05 g/L were labeled as “Δ” with fair dissolving property)	⊙ (those dissolved at 5 g/L or more and those fully miscible with a solvent for dye solution were labeled as “⊙” with excellent dissolving property)	–
–	–	–	CC#N [Acetonitrile, acetonitrile]	⊙ (those dissolved at 5 g/L or more and those fully miscible with a solvent for dye solution were labeled as “⊙” with excellent dissolving property)	⊙ (those dissolved at 5 g/L or more and those fully miscible with a solvent for dye solution were labeled as “⊙” with excellent dissolving property)	⊙ (those dissolved at 5 g/L or more and those fully miscible with a solvent for dye solution were labeled as “⊙” with excellent dissolving property)	⊙ (those dissolved at 5 g/L or more and those fully miscible with a solvent for dye solution were labeled as “⊙” with excellent dissolving property)	⊙ (those dissolved at 5 g/L or more and those fully miscible with a solvent for dye solution were labeled as “⊙” with excellent dissolving property)	⊙ (those dissolved at 5 g/L or more and those fully miscible with a solvent for dye solution were labeled as “⊙” with excellent dissolving property)	⊙ (those dissolved at 5 g/L or more and those fully miscible with a solvent for dye solution were labeled as “⊙” with excellent dissolving property)	⊙ (those dissolved at 5 g/L or more and those fully miscible with a solvent for dye solution were labeled as “⊙” with excellent dissolving property)	⊙ (those dissolved at 5 g/L or more and those fully miscible with a solvent for dye solution were labeled as “⊙” with excellent dissolving property)	⊙ (those dissolved at 5 g/L or more and those fully miscible with a solvent for dye solution were labeled as “⊙” with excellent dissolving property)	⊙ (those dissolved at 5 g/L or more and those fully miscible with a solvent for dye solution were labeled as “⊙” with excellent dissolving property)
–	–	–	CC(C)(C)CCP(=O)(O)CCC(C)(C)C [DINHOP, bis-(3,3-dimethyl-butyl)-phosphinic acid]	⊙ (those dissolved at 5 g/L or more and those fully miscible with a solvent for dye solution were labeled as “⊙” with excellent dissolving property)	⊙ (those dissolved at 5 g/L or more and those fully miscible with a solvent for dye solution were labeled as “⊙” with excellent dissolving property)	⊙ (those dissolved at 5 g/L or more and those fully miscible with a solvent for dye solution were labeled as “⊙” with excellent dissolving property)	⊙ (those dissolved at 5 g/L or more and those fully miscible with a solvent for dye solution were labeled as “⊙” with excellent dissolving property)	⊙ (those dissolved at 5 g/L or more and those fully miscible with a solvent for dye solution were labeled as “⊙” with excellent dissolving property)	⊙ (those dissolved at 5 g/L or more and those fully miscible with a solvent for dye solution were labeled as “⊙” with excellent dissolving property)	⊙ (those dissolved at 5 g/L or more and those fully miscible with a solvent for dye solution were labeled as “⊙” with excellent dissolving property)	⊙ (those dissolved at 5 g/L or more and those fully miscible with a solvent for dye solution were labeled as “⊙” with excellent dissolving property)	⊙ (those dissolved at 5 g/L or more and those fully miscible with a solvent for dye solution were labeled as “⊙” with excellent dissolving property)	⊙ (those dissolved at 5 g/L or more and those fully miscible with a solvent for dye solution were labeled as “⊙” with excellent dissolving property)	Δ (those having the solubility of less than 0.05 g/L were labeled as “Δ” with fair dissolving property)
–	–	–	CCO [Ethanol, ethanol]	⊙ (those dissolved at 5 g/L or more and those fully miscible with a solvent for dye solution were labeled as “⊙” with excellent dissolving property)	⊙ (those dissolved at 5 g/L or more and those fully miscible with a solvent for dye solution were labeled as “⊙” with excellent dissolving property)	⊙ (those dissolved at 5 g/L or more and those fully miscible with a solvent for dye solution were labeled as “⊙” with excellent dissolving property)	⊙ (those dissolved at 5 g/L or more and those fully miscible with a solvent for dye solution were labeled as “⊙” with excellent dissolving property)	⊙ (those dissolved at 5 g/L or more and those fully miscible with a solvent for dye solution were labeled as “⊙” with excellent dissolving property)	⊙ (those dissolved at 5 g/L or more and those fully miscible with a solvent for dye solution were labeled as “⊙” with excellent dissolving property)	⊙ (those dissolved at 5 g/L or more and those fully miscible with a solvent for dye solution were labeled as “⊙” with excellent dissolving property)	⊙ (those dissolved at 5 g/L or more and those fully miscible with a solvent for dye solution were labeled as “⊙” with excellent dissolving property)	⊙ (those dissolved at 5 g/L or more and those fully miscible with a solvent for dye solution were labeled as “⊙” with excellent dissolving property)	⊙ (those dissolved at 5 g/L or more and those fully miscible with a solvent for dye solution were labeled as “⊙” with excellent dissolving property)	⊙ (those dissolved at 5 g/L or more and those fully miscible with a solvent for dye solution were labeled as “⊙” with excellent dissolving property)
hardly mixed or dissolved	–	–	C[S+](C)[O-] [DMSO, dimethyl sulfoxide]	–	–	–	–	–	–	–	–	–	–	–
–	slightly inferior dissolving property	poor dissolving property	C[C@H](CCC(=O)O)[C@H]1CC[C@H]2[C@@H]3[C@H](O)C[C@@H]4C[C@H](O)CC[C@]4(C)[C@H]3CC[C@]12C [CDCA, chenodeoxychloic acid]	◯ (those having solubility of 0.05 g/L or more but less than 5 g/L and those miscible with a solvent for dye solution were labeled as “∘” with good dissolving property)	⊙ (those dissolved at 5 g/L or more and those fully miscible with a solvent for dye solution were labeled as “⊙” with excellent dissolving property)	⊙ (those dissolved at 5 g/L or more and those fully miscible with a solvent for dye solution were labeled as “⊙” with excellent dissolving property)	◯ (those having solubility of 0.05 g/L or more but less than 5 g/L and those miscible with a solvent for dye solution were labeled as “∘” with good dissolving property)	◯ (those having solubility of 0.05 g/L or more but less than 5 g/L and those miscible with a solvent for dye solution were labeled as “∘” with good dissolving property)	Δ (those having the solubility of less than 0.05 g/L were labeled as “Δ” with fair dissolving property)	⊙ (those dissolved at 5 g/L or more and those fully miscible with a solvent for dye solution were labeled as “⊙” with excellent dissolving property)	Δ (those having the solubility of less than 0.05 g/L were labeled as “Δ” with fair dissolving property)	◯ (those having solubility of 0.05 g/L or more but less than 5 g/L and those miscible with a solvent for dye solution were labeled as “∘” with good dissolving property)	⊙ (those dissolved at 5 g/L or more and those fully miscible with a solvent for dye solution were labeled as “⊙” with excellent dissolving property)	–
